Test results published in patent US7687465B2, “Therapeutic cancer vaccine” (Kraeftens Bekaempelse, priority 2003, dated 2010).

Biological target: T1, HLA-A2 (Homo sapiens, UniProt P04439, D140Y/D185E/D98H/E176V/E277Q/G131W/G231S/I119V/I121R/I166T/I218V/L300P/L318F/N151K/N90K/P208A/P217A/Q86G/Q94H/R138H/R169H/T345S)
T1 construct: stabilization of the class 1 molecule after loading of peptide to the peptide transporter deficient cell line T2; endogenous in cells; host or cells: T2 (TAP-deficient human cell line), metabolically labelled with [35S]-methionine and lysed
Experiment: Assembly assay for peptide binding to class I MHC molecules
Settings: concentration of the peptide required for half maximal binding to HLA-A2; read-out: C50
Procedure: Assembly assays for binding of the synthetic peptides to class I MHC molecules metabolically labeled with [^35S]-methionine can be carried out as described below. It will be appreciated by the person skilled in the art that the protocol may be adopted for any peptide and any class I MHC molecule.
Briefly, TAP deficient cells were metabolically labeled with [^35S]-methionine (Amersham, Freiburg, Germany). The cells were lyzed in 0.5 ml lysis buffer (150 mM NaCl, 50 mM TrisHCl, 0.5% NP-40 (Fluka, Buchs, Switzerland), 5 mM EDTA, pH 7.5) with 0.5% Mega-9 (Sigma, St. Louis, USA) in the presence of protease inhibitors (2 mM PMSF, 5 mM iodoacetamide, 2 μg/ml pepstatin, 2 μg/ml leupeptin) with or without synthetic peptide (for a list of positive control peptides, see Table 2).
After 20 min of incubation, the cell nuclei were removed by centrifugation (5 min, 10,000 g) and 50 μl (10% v/v) freshly washed Staphylococcus aureus organisms (Pansorbin, Calbiochem, Nottingham, UK). The next day Pansorbin was removed by centrifugation (12 min, 16,000 g) and the appropriate monoclonal antibody was added at a final concentration of 10 μg/ml, incubated for 90 min, followed by addition of protein A-Sepharose (75 μl, 10% v/v) and incubation for 1 h. The beads were washed 4 times and stored at −20° C. until analysis by electrophoresis.
In the case of an assembly assay with the HLA class I-specific conformation-dependent monoclonal antibody W6/32, samples were eluted in reducing buffer (9.5 M urea, 2% NP-40, 5% 2-mercaptoethanol, 2% Ampholines, pH range 3.5-9.5 (Pharmacia Biotech, Uppsala, Sweden)) and focused for 16 h at 880 V on 5.5% polyacrylamide isoelectric focusing (IEF) gels^20,39.
Samples from assembly assays with allele-specific antibodies were eluted by boiling (5 min) in SDS reducing buffer (50 mM TrisHCl pH 6.8, 2% SDS, 5% 2-mercaptoethanol, 10% glycerol, 2.5% bromophenol blue) and electrophorezed on 12% SDS-PAGE gels (1 h at 200 V). All gels were fixed in 10% acetic acid with 5% methanol and dried onto 3 MM paper (Whatman, Maidstone, UK). MHC heavy chain bands were quantified using the Imagequant Phosphorimager program (Molecular Dynamics, Sunnyvale, Calif., USA). The intensity of the band is directly related to the amount of peptide-bound class I MHC complex recovered during the assay. C50 value (μM) as the concentration of the peptide required for half maximal binding to MHC may thus be determined. The binding affinities of the analysed peptides are determined according to their efficiency of stabilising the HLA class I molecules. The binding affinity is represented as the peptide concentration required to reach half-maximal stabilistation of appropriate HLA-molecule.
Assembly assays for binding of the synthetic peptides to class I MHC molecules metabolically labeled with [^35S]-methionine were carried out as described^15,16. The assembly assay is based on stabilization of the class 1 molecule after loading of peptide to the peptide transporter deficient cell line T2. Subsequently correctly folded stable MHC heavy chains are immunoprecipitated using conformation-dependent antibodies. After IEF electrophoresis, gels were exposed to phosphorImager screens, and peptide binding was quantitated using the Imagequant PhosphorImager program (Molecular Dynamics, Sunnyvale, Calif.).

With CC(C)C[C@H](NC(=O)[C@@H](N)CCCNC(=N)N)C(=O)N[C@@H](CCC(N)=O)C(=O)N[C@@H](CCC(=O)O)C(=O)N[C@@H](CCC(=O)O)C(=O)N[C@@H](CCCNC(=N)N)C(=O)N[C@H](C(=O)N[C@@H](CS)C(=O)N[C@@H](CCCCN)C(=O)N[C@H](C(=O)O)C(C)C)[C@@H](C)O [ML-IAP245] the EC50 was 1000 nM.
